Source: ChEMBL document CHEMBL4699567, “hDM2 protein-binding peptides screened from stapled α-helical peptide phage display libraries with different types of staple linkers” (Bioorg Med Chem Lett, 2020)
pKd: −log10 of the molar value. Starred links: 1 amine or outer side, 2 acyl side, 3 side chain; linkers in the order of their positions; H or OH if unused. Positions of bridges follow the written chain, without caps; N, C: chain ends. Residues, ends and D or L forms follow the SMILES beside them. *: point of attachment. 5FAM = O=C1OC2(c3ccc(O)cc3Oc3cc(O)ccc32)c2ccc(C(=O)*)cc21; CH2CONH(CH2)4NHCOCH2 = O=C(C[*:1])NCCCCNC(=O)C[*:2]

Tests used:
[1] = target: T1, E3 ubiquitin-protein ligase Mdm2 (Homo sapiens, UniProt Q00987); assay: Binding affinity to human MDM2 assessed as dissociation constant by fluorescence polarization assay
[2] = target: T1, E3 ubiquitin-protein ligase Mdm2; assay: Binding affinity to human MDM2 assessed as dissociation constant in presence of 50 uM p53 peptide by fluorescence polarization assay

T1 sequence (Q00987 whole entry): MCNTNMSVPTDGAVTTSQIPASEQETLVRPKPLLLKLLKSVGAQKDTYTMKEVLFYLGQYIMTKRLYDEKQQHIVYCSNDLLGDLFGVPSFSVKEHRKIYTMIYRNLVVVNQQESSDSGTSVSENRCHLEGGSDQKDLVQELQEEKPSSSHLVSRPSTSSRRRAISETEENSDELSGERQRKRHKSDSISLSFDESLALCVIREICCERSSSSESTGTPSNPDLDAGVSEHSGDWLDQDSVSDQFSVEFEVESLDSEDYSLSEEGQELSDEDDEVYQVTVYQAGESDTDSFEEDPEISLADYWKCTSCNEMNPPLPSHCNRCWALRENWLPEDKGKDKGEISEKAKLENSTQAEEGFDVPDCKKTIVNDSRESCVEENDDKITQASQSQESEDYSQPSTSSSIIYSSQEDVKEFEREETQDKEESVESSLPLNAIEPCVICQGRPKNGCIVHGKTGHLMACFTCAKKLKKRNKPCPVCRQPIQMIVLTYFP

Row | SMILES | pKd [1] | pKd [2]
1 | CSCC[C@H](NC(=O)[C@H](C)NC(=O)CN)C(=O)N[C@@H](CCC(=O)O)C(=O)N[C@@H](CS)C(=O)N[C@@H](Cc1c[nH]c2ccccc12)C(=O)N[C@@H](CC(C)C)C(=O)N[C@@H](CCCCN)C(=O)N[C@@H](CCC(=O)O)C(=O)N[C@@H](CCCCN)C(=O)N[C@@H](CCC(=O)O)C(=O)N[C@@H](CS)C(=O)N[C@@H](CCCCN)C(=O)N[C@@H](CCC(N)=O)C(=O)N[C@@H](C)C(=O)NCC(=O)NCC(=O)NCC(=O)NCC(=O)N[C@@H](CCCCNC(=O)c1ccc2c(c1)C(=O)OC21c2ccc(O)cc2Oc2cc(O)ccc21)C(N)=O (H-GAMECWLKEKECKQAGGGGK(5FAM)-NH2) | 3.71 | 3.36
2 | CC(C)C[C@H](NC(=O)[C@H](CCC(=O)O)NC(=O)[C@H](CCCCN)NC(=O)[C@H](CC(N)=O)NC(=O)[C@@H](NC(=O)[C@H](CS)NC(=O)[C@H](CCC(=O)O)NC(=O)[C@H](Cc1c[nH]c2ccccc12)NC(=O)[C@H](C)NC(=O)CN)[C@@H](C)O)C(=O)N[C@@H](Cc1c[nH]c2ccccc12)C(=O)N[C@@H](CS)C(=O)N[C@@H](CCCCN)C(=O)N[C@@H](CCC(N)=O)C(=O)N[C@@H](C)C(=O)NCC(=O)NCC(=O)NCC(=O)NCC(=O)N[C@@H](CCCCNC(=O)c1ccc2c(c1)C(=O)OC21c2ccc(O)cc2Oc2cc(O)ccc21)C(N)=O (H-GAWECTNKELWCKQAGGGGK(5FAM)-NH2) | 3.26 | 
3 | CSCC[C@H](NC(=O)[C@H](C)NC(=O)CN)C(=O)N[C@@H](CCC(=O)O)C(=O)N[C@H]1CSCC(=O)NCCCCNC(=O)CSC[C@@H](C(=O)N[C@@H](CCCCN)C(=O)N[C@@H](CCC(N)=O)C(=O)N[C@@H](C)C(=O)NCC(=O)NCC(=O)NCC(=O)NCC(=O)N[C@@H](CCCCNC(=O)c2ccc3c(c2)C(=O)OC32c3ccc(O)cc3Oc3cc(O)ccc32)C(N)=O)NC(=O)[C@H](CCC(=O)O)NC(=O)[C@H](CCCCN)NC(=O)[C@H](CCC(=O)O)NC(=O)[C@H](CCCCN)NC(=O)[C@H](CC(C)C)NC(=O)[C@H](Cc2c[nH]c3ccccc23)NC1=O (H-GAMECWLKEKECKQAGGGGK(5FAM)-NH2; linker 5-12 via CH2CONH(CH2)4NHCOCH2) | 3.85 | 
4 | CC[C@H](C)[C@H](NC(=O)[C@H](CCCCN)NC(=O)[C@H](CS)NC(=O)[C@H](CCC(=O)O)NC(=O)[C@H](CCC(N)=O)NC(=O)[C@H](CCC(=O)O)NC(=O)[C@H](CCCCN)NC(=O)[C@H](CC(C)C)NC(=O)[C@H](Cc1c[nH]c2ccccc12)NC(=O)[C@H](CS)NC(=O)[C@H](CCC(=O)O)NC(=O)[C@H](CCSC)NC(=O)[C@H](C)NC(=O)CN)C(=O)N[C@@H](C)C(=O)NCC(=O)NCC(=O)NCC(=O)NCC(=O)N[C@@H](CCCCNC(=O)c1ccc2c(c1)C(=O)OC21c2ccc(O)cc2Oc2cc(O)ccc21)C(N)=O (H-GAMECWLKEQECKIAGGGGK(5FAM)-NH2) | 3.94 | 3.35
5 | CSCC[C@H](NC(=O)[C@H](C)NC(=O)CN)C(=O)N[C@@H](CCC(=O)O)C(=O)N[C@H]1CSCC(=O)NCCCCNC(=O)CSC[C@@H](C(=O)N[C@@H](CCCCN)C(=O)N[C@@H](CCCCN)C(=O)N[C@@H](C)C(=O)NCC(=O)NCC(=O)NCC(=O)NCC(=O)N[C@@H](CCCCNC(=O)c2ccc3c(c2)C(=O)OC32c3ccc(O)cc3Oc3cc(O)ccc32)C(N)=O)NC(=O)[C@H](CCC(=O)O)NC(=O)[C@H](CCCCN)NC(=O)[C@H](CCC(=O)O)NC(=O)[C@H](CCCCN)NC(=O)[C@H](CC(C)C)NC(=O)[C@H](Cc2c[nH]c3ccccc23)NC1=O (H-GAMECWLKEKECKKAGGGGK(5FAM)-NH2; linker 5-12 via CH2CONH(CH2)4NHCOCH2) | 3.75 | 3.24
